{"source": "patent US20250250299A1", "about": "“MACROCYCLIC IMMUNOMODULATORS” (Bristol-Myers Squibb Company, priority 2022, published 2025)", "biological_target": "T1, human PD-1 (Jurkat-PD-1 cells; binding of PE-labeled human PD-L1-Ig) (Homo sapiens, UniProt Q15116)", "T1 construct": "expressed in transfected cells; host or cells: Jurkat (Jurkat-PD-1 / Jurkat-hPD-1)", "T1 sequence (Q15116 25-288)": "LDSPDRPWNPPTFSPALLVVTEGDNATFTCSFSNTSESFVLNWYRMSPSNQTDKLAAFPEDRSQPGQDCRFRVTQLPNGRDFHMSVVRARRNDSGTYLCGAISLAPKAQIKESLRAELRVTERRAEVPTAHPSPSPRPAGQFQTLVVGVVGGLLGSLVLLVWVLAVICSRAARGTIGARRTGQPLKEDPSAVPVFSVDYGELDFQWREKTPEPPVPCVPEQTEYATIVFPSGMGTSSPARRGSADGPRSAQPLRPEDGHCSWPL", "assay": "Jurkat-PD-1 Cell Binding High-Content Screening Assay", "conditions": "Jurkat cell line over-expressing human PD-1; compound 2 h at 37° C., then PE-labeled PD-L1-Ig 20 nM final, 1 hour; read-out: Jurkat hPD1 PDL1 IC50", "note": "Where a SMILES comes first, the peptide text is derived from it. Bridges are numbered along the chain shown (N, C = ends). [ ]: non-standard residue; d: D form. The star is where a group is joined. X1 = O=C(O)CCCCCCCCCCCCCCCCC(=O)N[C@@H](CCC(=O)NCCOCCOCCOCCOCCOCCOCCOCCOCCOCCOCCOCCn1cc(C*)nn1)C(=O)O; Bip = N[C@@H](Cc1ccc(-c2ccccc2)cc1)C(=O)O; Phe(3-Me) = Cc1cccc(C[C@H](N)C(=O)O)c1; Cha = N[C@@H](CC1CCCCC1)C(=O)O; Carboxymethyl = O=C(O)C*; Orn = NCCC[C@H](N)C(=O)O; Dab = NCC[C@H](N)C(=O)O"}
{"compound": "Cc1cccc(C[C@@H]2NC(=O)[C@H](CC(=O)O)NC(=O)[C@H](Cc3ccc(OCc4cn(CCOCCOCCOCCOCCOCCOCCOCCOCCOCCOCCOCCNC(=O)CC[C@H](NC(=O)CCCCCCCCCCCCCCCCC(=O)O)C(=O)O)nn4)cc3)NC(=O)[C@H](CCN)NC(=O)CSC[C@@H](C(=O)N[C@@H](CCN)C(N)=O)NC(=O)[C@H](CCC(=O)O)NC(=O)[C@H](C(C)C)NC(=O)[C@H](CC3CCCCC3)NC(=O)[C@H](CCN)NC(=O)[C@@H](CC(C)C)NC(=O)[C@H](CCCN)NC(=O)[C@H](Cc3ccc(OCC(=O)O)cc3)NC(=O)[C@H](Cc3ccc(-c4ccccc4)cc3)NC(=O)[C@H](Cc3ccc(OCC(=O)O)cc3)NC2=O)c1", "note": "[Compound 1007] ({CH2CO}-[Dab]Y(X1)D[Phe(3-Me)]Y(Carboxymethyl)[Bip]Y(Carboxymethyl)[Orn][dL][Dab][Cha]VEC[Dab]-NH2; thioether N-14)", "values": [{"measurement": "IC50", "result": 510, "unit": "nM"}]}
